According to the kinase profiling compilation of Christmann-Franck et al. (2016):

Legend:
Assay in all cases: radiometric filter-binding kinase assay, Kinase HotSpot
Conditions in all cases: compound 0.5 µM; ATP 10 µM
FGFR4 (human) = FGFR4 (human) (UniProt P22455)
TGFBR2 (human) = TGFBR2 (human) (UniProt P37173)
DAPK2 (human) = DAPK2 (human) (UniProt Q9UIK4)
NTRK2 (human) = NTRK2 (human) (UniProt Q16620)
PAK1 (human) = PAK1 (human) (UniProt Q13153)
TAOK2 (human) = TAOK2 (human) (UniProt Q9UL54)
YES1 (human) = YES1 (human) (UniProt P07947)
PLK3 (human) = PLK3 (human) (UniProt Q9H4B4)
MAP2K1 (human) = MAP2K1 (human) (UniProt Q02750)
PAK2 (human) = PAK2 (human) (UniProt Q13177)
MAP3K10 (human) = MAP3K10 (human) (UniProt Q02779)
DSTYK (human) = DSTYK (human) (UniProt Q6XUX3)
DYRK4 (human) = DYRK4 (human) (UniProt Q9NR20)
FLT3 (human) = FLT3 (human) (UniProt P36888)
PDPK1 (human) = PDPK1 (human) (UniProt O15530)
CDK9 CCNK (human) = CDK9 CCNK (human) (UniProt O75909+P50750)
ABL2 (human) = ABL2 (human) (UniProt P42684)
JAK2 JH1 JH2 (human) = JAK2 JH1 JH2 (human) (UniProt O60674)
[1] = molecular target: TYK2 JH1 catalytic (human) (UniProt P29597)
NUAK1 (human) = NUAK1 (human) (UniProt O60285)
CAMK1D (human) = CAMK1D (human) (UniProt Q8IU85)
LIMK1 (human) = LIMK1 (human) (UniProt P53667)
SRPK1 (human) = SRPK1 (human) (UniProt Q96SB4)
CSNK1G3 (human) = CSNK1G3 (human) (UniProt Q9Y6M4)
JAK3 JH1 JH2 (human) = JAK3 JH1 JH2 (human) (UniProt P52333)
CDK9 CCNT1 (human) = CDK9 CCNT1 (human) (UniProt P50750+O60563)
MAPKAPK5 (human) = MAPKAPK5 (human) (UniProt Q8IW41)
MERTK (human) = MERTK (human) (UniProt Q12866)
PRKCE (human) = PRKCE (human) (UniProt Q02156)
EPHA6 (human) = EPHA6 (human) (UniProt Q9UF33)
CDK7 CCNH MNAT1 (human) = CDK7 CCNH MNAT1 (human) (UniProt P50613+P51948+P51946)
GSK3B (human) = GSK3B (human) (UniProt P49841)
CDC42BPB (human) = CDC42BPB (human) (UniProt Q9Y5S2)
DYRK1B (human) = DYRK1B (human) (UniProt Q9Y463)
PNCK (human) = PNCK (human) (UniProt Q6P2M8)
GRK5 (human) = GRK5 (human) (UniProt P34947)
MARK1 (human) = MARK1 (human) (UniProt Q9P0L2)
PBK (human) = PBK (human) (UniProt Q96KB5)
ACVRL1 (human) = ACVRL1 (human) (UniProt P37023)
PRKCD (human) = PRKCD (human) (UniProt Q05655)
PRKG2 (human) = PRKG2 (human) (UniProt Q13237)
Chain of PRKG2 (human) (Q13237 whole entry, looked up): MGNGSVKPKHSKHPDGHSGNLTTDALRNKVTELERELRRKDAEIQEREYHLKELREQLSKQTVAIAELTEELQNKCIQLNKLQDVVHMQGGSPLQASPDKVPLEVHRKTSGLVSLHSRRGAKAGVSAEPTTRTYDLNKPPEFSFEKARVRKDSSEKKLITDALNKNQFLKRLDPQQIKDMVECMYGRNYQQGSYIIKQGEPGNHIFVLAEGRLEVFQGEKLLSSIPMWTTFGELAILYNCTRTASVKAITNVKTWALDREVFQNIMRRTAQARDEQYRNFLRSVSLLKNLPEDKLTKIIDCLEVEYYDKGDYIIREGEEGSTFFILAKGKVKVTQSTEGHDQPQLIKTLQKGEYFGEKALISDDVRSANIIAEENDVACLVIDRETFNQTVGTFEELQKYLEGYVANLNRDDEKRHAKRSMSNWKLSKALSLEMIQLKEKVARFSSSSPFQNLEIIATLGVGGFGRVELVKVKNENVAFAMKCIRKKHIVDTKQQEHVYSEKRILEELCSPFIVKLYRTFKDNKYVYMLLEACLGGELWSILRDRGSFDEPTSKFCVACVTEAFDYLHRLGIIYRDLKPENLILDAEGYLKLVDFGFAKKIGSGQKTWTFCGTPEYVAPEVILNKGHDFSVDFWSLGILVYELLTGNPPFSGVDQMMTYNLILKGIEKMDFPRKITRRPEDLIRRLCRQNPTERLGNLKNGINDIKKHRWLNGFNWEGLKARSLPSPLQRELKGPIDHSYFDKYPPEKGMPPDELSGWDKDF

Chain of YES1 (human) (P07947 whole entry, looked up): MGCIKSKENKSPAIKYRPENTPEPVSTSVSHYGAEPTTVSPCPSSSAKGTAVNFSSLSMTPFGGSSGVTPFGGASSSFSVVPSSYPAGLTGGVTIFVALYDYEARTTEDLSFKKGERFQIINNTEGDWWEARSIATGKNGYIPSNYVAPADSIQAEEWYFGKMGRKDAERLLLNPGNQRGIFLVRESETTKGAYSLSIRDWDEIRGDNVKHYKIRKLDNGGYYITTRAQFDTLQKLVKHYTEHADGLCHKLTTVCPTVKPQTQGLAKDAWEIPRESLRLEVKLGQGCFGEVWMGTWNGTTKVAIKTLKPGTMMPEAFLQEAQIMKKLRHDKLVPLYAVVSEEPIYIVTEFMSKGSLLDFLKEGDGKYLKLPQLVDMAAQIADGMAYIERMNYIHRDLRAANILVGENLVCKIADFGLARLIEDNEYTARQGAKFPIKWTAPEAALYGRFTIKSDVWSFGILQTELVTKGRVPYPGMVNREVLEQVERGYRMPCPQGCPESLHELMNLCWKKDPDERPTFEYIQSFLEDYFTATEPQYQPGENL
Chain of CAMK1D (human) (Q8IU85 whole entry, looked up): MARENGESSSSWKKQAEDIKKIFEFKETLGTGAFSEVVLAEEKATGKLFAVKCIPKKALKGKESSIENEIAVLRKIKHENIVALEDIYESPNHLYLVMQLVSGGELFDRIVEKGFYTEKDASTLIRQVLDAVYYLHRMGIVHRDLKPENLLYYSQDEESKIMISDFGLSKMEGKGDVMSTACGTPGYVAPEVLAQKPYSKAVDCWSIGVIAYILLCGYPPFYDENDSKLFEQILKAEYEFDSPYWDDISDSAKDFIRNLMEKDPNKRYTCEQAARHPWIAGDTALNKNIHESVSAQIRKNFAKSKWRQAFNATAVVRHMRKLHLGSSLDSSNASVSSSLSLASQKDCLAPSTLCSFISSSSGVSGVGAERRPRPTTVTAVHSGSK
Chain of ABL2 (human) (P42684 whole entry, looked up): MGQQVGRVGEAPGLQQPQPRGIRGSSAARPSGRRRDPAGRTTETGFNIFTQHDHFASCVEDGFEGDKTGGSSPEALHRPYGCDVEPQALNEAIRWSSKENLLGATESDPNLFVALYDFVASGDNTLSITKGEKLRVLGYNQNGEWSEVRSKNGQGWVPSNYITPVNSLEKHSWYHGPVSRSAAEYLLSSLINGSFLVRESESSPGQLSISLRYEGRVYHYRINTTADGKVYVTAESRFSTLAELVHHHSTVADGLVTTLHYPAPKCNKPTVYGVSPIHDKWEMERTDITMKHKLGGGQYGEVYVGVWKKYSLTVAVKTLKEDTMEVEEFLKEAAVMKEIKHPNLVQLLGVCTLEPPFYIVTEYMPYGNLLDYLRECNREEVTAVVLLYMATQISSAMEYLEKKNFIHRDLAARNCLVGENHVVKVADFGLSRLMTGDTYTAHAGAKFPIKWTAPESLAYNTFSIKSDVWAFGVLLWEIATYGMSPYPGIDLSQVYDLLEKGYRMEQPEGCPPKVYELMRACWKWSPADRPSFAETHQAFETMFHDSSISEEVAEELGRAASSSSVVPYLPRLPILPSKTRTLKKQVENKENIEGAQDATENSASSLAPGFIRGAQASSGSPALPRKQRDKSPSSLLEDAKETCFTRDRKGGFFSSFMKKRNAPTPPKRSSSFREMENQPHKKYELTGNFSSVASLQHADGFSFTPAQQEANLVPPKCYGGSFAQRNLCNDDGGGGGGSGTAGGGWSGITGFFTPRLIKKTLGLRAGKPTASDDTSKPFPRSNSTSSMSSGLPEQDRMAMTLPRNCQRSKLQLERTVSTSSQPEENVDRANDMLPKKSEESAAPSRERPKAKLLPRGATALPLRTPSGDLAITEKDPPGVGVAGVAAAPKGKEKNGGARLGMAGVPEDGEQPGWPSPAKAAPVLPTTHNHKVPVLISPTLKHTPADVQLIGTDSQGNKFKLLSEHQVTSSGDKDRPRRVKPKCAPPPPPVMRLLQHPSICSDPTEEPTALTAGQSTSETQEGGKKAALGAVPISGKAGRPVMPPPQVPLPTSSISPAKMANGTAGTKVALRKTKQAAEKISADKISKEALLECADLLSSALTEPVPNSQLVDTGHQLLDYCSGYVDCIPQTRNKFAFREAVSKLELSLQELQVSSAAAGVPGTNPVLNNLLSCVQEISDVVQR
Chain of DSTYK (human) (Q6XUX3 whole entry, looked up): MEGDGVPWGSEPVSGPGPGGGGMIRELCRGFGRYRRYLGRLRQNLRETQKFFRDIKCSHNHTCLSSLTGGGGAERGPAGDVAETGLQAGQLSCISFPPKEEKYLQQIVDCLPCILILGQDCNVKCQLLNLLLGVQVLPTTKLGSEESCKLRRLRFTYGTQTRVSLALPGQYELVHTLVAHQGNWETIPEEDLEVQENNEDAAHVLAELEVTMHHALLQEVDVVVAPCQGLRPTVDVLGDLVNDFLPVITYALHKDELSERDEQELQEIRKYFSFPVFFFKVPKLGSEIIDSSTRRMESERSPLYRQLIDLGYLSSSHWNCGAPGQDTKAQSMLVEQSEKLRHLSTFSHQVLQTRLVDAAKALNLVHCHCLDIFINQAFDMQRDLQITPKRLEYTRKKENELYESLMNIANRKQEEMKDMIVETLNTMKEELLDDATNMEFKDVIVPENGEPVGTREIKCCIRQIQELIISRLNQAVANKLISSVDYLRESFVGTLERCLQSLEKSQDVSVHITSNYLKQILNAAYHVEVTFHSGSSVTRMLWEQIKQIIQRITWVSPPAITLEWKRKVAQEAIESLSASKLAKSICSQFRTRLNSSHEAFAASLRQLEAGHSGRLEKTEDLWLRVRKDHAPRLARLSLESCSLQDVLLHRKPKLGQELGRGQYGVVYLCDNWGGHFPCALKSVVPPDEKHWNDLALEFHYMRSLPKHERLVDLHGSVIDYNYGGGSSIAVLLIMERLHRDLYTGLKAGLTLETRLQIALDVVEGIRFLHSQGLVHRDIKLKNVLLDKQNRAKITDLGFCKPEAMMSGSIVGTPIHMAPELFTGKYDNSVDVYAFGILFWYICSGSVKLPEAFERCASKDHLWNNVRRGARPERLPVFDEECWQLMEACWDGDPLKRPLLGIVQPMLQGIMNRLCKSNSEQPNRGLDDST
Chain of GRK5 (human) (P34947 whole entry, looked up): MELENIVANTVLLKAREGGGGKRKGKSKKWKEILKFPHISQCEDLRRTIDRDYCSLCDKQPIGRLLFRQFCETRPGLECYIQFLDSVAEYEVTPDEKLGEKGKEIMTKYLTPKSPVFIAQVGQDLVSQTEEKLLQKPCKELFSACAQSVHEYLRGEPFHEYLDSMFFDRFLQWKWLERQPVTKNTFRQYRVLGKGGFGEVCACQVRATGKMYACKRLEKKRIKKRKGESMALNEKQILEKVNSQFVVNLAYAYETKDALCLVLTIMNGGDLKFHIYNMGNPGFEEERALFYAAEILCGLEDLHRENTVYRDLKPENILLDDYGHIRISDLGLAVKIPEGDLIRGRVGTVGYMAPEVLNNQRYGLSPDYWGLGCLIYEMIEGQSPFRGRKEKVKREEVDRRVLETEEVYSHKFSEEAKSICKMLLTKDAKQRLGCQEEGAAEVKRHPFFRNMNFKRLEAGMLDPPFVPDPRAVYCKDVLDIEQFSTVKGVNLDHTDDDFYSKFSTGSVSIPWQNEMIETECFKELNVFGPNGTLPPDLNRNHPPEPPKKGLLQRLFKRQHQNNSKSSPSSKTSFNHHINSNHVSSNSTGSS
Chain of LIMK1 (human) (P53667 whole entry, looked up): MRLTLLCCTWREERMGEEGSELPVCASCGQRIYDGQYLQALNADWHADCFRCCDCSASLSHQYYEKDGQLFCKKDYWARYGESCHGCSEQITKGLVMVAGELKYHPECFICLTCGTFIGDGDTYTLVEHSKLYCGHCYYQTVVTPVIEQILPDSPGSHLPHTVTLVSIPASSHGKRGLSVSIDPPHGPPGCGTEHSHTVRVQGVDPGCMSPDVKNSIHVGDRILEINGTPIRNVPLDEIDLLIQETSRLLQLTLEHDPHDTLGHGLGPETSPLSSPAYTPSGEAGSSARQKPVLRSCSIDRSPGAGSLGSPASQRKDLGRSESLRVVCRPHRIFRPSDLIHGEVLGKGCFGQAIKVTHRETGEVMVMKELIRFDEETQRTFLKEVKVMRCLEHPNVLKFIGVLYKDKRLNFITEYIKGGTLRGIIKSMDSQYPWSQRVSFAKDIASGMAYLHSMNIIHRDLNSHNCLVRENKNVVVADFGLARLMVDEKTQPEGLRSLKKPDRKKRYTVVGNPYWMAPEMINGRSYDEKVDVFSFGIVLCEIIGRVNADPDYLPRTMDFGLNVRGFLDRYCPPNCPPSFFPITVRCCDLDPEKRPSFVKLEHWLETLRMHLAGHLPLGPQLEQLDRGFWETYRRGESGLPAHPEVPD

SMILES: Nc1ncnc2c1c(-c1ccc(Oc3ccccc3)cc1)cn2C1CCCC1
- residual activity (FGFR4 (human)): 98%
- residual activity (TGFBR2 (human)): 166%
- residual activity (DAPK2 (human)): 87.6%
- residual activity (NTRK2 (human)): 87%
- residual activity (PAK1 (human)): 96%
- residual activity (TAOK2 (human)): 104%
- residual activity (YES1 (human)): 0.657%
- residual activity (PLK3 (human)): 105%
- residual activity (MAP2K1 (human)): 93%
- residual activity (PAK2 (human)): 106%
- residual activity (MAP3K10 (human)): 82.6%
- residual activity (DSTYK (human)): 100%
- residual activity (DYRK4 (human)): 91.6%
- residual activity (FLT3 (human)): 4.48%
- residual activity (PDPK1 (human)): 102%
- residual activity (CDK9 CCNK (human)): 104%
- residual activity (ABL2 (human)): 84.8%
- residual activity (JAK2 JH1 JH2 (human)): 104%
- residual activity [1]: 98.5%
- residual activity (NUAK1 (human)): 87%
- residual activity (CAMK1D (human)): 50.3%
- residual activity (LIMK1 (human)): 95.7%
- residual activity (SRPK1 (human)): 105%
- residual activity (CSNK1G3 (human)): 99.5%
- residual activity (JAK3 JH1 JH2 (human)): 105%
- residual activity (CDK9 CCNT1 (human)): 104%
- residual activity (MAPKAPK5 (human)): 98.7%
- residual activity (MERTK (human)): 87.4%
- residual activity (PRKCE (human)): 96%
- residual activity (EPHA6 (human)): 63.6%
- residual activity (CDK7 CCNH MNAT1 (human)): 96.8%
- residual activity (GSK3B (human)): 99.2%
- residual activity (CDC42BPB (human)): 107%
- residual activity (DYRK1B (human)): 92.2%
- residual activity (PNCK (human)): 96.2%
- residual activity (GRK5 (human)): 102%
- residual activity (MARK1 (human)): 94.1%
- residual activity (PBK (human)): 114%
- residual activity (ACVRL1 (human)): 95.9%
- residual activity (PRKCD (human)): 99.6%
- residual activity (PRKG2 (human)): 114%

SMILES: CO[C@H]1CC2CC[C@@H](C)[C@@](O)(O2)C(=O)C(=O)N2CCCC[C@H]2C(=O)OC([C@H](C)C[C@@H]2CC[C@@H](O)[C@H](OC)C2)CC(=O)[C@H](C)/C=C(\C)[C@@H](O)[C@@H](OC)C(=O)[C@H](C)C[C@H](C)/C=C/C=C/C=C/1C (some centres not stated)
- residual activity (FGFR4 (human)): 76.6%
- residual activity (TGFBR2 (human)): 136%
- residual activity (DAPK2 (human)): 112%
- residual activity (NTRK2 (human)): 106%
- residual activity (PAK1 (human)): 95.6%
- residual activity (TAOK2 (human)): 97.6%
- residual activity (YES1 (human)): 101%
- residual activity (PLK3 (human)): 96.2%
- residual activity (MAP2K1 (human)): 92.1%
- residual activity (PAK2 (human)): 101%
- residual activity (MAP3K10 (human)): 109%
- residual activity (DSTYK (human)): 107%
- residual activity (DYRK4 (human)): 99.8%
- residual activity (FLT3 (human)): 95.6%
- residual activity (PDPK1 (human)): 92.6%
- residual activity (CDK9 CCNK (human)): 106%
- residual activity (ABL2 (human)): 94.2%
- residual activity (JAK2 JH1 JH2 (human)): 97.5%
- residual activity [1]: 107%
- residual activity (NUAK1 (human)): 101%
- residual activity (CAMK1D (human)): 105%
- residual activity (LIMK1 (human)): 89.8%
- residual activity (SRPK1 (human)): 108%
- residual activity (CSNK1G3 (human)): 108%
- residual activity (JAK3 JH1 JH2 (human)): 92.4%
- residual activity (CDK9 CCNT1 (human)): 87%
- residual activity (MAPKAPK5 (human)): 98%
- residual activity (MERTK (human)): 90.9%
- residual activity (PRKCE (human)): 105%
- residual activity (EPHA6 (human)): 99%
- residual activity (CDK7 CCNH MNAT1 (human)): 98.2%
- residual activity (GSK3B (human)): 109%
- residual activity (CDC42BPB (human)): 103%
- residual activity (DYRK1B (human)): 108%
- residual activity (PNCK (human)): 95.4%
- residual activity (GRK5 (human)): 98.7%
- residual activity (MARK1 (human)): 98.8%
- residual activity (PBK (human)): 103%
- residual activity (ACVRL1 (human)): 97.9%
- residual activity (PRKCD (human)): 102%
- residual activity (PRKG2 (human)): 91.9%

SMILES: CCOC(=O)c1c(C)[nH]c(/C=C2\C(=O)Nc3ccccc32)c1C
- residual activity (FGFR4 (human)): 82.4%
- residual activity (TGFBR2 (human)): 101%
- residual activity (DAPK2 (human)): 96.3%
- residual activity (NTRK2 (human)): 66.6%
- residual activity (PAK1 (human)): 99.9%
- residual activity (TAOK2 (human)): 105%
- residual activity (YES1 (human)): 68.3%
- residual activity (PLK3 (human)): 97.5%
- residual activity (PAK2 (human)): 92.5%
- residual activity (MAP3K10 (human)): 98.5%
- residual activity (DSTYK (human)): 90.8%
- residual activity (DYRK4 (human)): 99.6%
- residual activity (FLT3 (human)): 13.3%
- residual activity (PDPK1 (human)): 92.5%
- residual activity (CDK9 CCNK (human)): 97.5%
- residual activity (ABL2 (human)): 88.5%
- residual activity (JAK2 JH1 JH2 (human)): 96.7%
- residual activity [1]: 89.9%
- residual activity (NUAK1 (human)): 62.3%
- residual activity (CAMK1D (human)): 93.1%
- residual activity (LIMK1 (human)): 81.3%
- residual activity (SRPK1 (human)): 95.4%
- residual activity (CSNK1G3 (human)): 97.9%
- residual activity (JAK3 JH1 JH2 (human)): 69.1%
- residual activity (CDK9 CCNT1 (human)): 94.7%
- residual activity (MAPKAPK5 (human)): 93.9%
- residual activity (MERTK (human)): 69.3%
- residual activity (PRKCE (human)): 98.2%
- residual activity (EPHA6 (human)): 80%
- residual activity (CDK7 CCNH MNAT1 (human)): 96.8%
- residual activity (GSK3B (human)): 105%
- residual activity (CDC42BPB (human)): 110%
- residual activity (DYRK1B (human)): 105%
- residual activity (PNCK (human)): 88.6%
- residual activity (GRK5 (human)): 102%
- residual activity (MARK1 (human)): 90.8%
- residual activity (PBK (human)): 85%
- residual activity (ACVRL1 (human)): 94.8%
- residual activity (PRKCD (human)): 91.6%
- residual activity (PRKG2 (human)): 78.9%

SMILES: COc1cc2ncnc(Nc3cccc(Cl)c3)c2cc1OC
- residual activity (FGFR4 (human)): 78.7%
- residual activity (TGFBR2 (human)): 94.5%
- residual activity (DAPK2 (human)): 93.3%
- residual activity (NTRK2 (human)): 93.3%
- residual activity (PAK1 (human)): 89.3%
- residual activity (TAOK2 (human)): 96.1%
- residual activity (YES1 (human)): 59.9%
- residual activity (PLK3 (human)): 92.3%
- residual activity (MAP2K1 (human)): 98.5%
- residual activity (PAK2 (human)): 90.7%
- residual activity (MAP3K10 (human)): 101%
- residual activity (DSTYK (human)): 90.8%
- residual activity (DYRK4 (human)): 91.7%
- residual activity (FLT3 (human)): 37.6%
- residual activity (PDPK1 (human)): 81.9%
- residual activity (CDK9 CCNK (human)): 106%
- residual activity (ABL2 (human)): 52.6%
- residual activity (JAK2 JH1 JH2 (human)): 97.4%
- residual activity [1]: 98.1%
- residual activity (NUAK1 (human)): 75.8%
- residual activity (CAMK1D (human)): 96.6%
- residual activity (LIMK1 (human)): 72.4%
- residual activity (SRPK1 (human)): 102%
- residual activity (CSNK1G3 (human)): 92.4%
- residual activity (JAK3 JH1 JH2 (human)): 91.6%
- residual activity (CDK9 CCNT1 (human)): 85.1%
- residual activity (MAPKAPK5 (human)): 89.5%
- residual activity (MERTK (human)): 76.9%
- residual activity (PRKCE (human)): 97.8%
- residual activity (EPHA6 (human)): 27.8%
- residual activity (CDK7 CCNH MNAT1 (human)): 99.9%
- residual activity (GSK3B (human)): 98.7%
- residual activity (CDC42BPB (human)): 84.9%
- residual activity (DYRK1B (human)): 104%
- residual activity (PNCK (human)): 89.6%
- residual activity (GRK5 (human)): 105%
- residual activity (PBK (human)): 70.9%
- residual activity (ACVRL1 (human)): 96.4%
- residual activity (PRKCD (human)): 86.4%
- residual activity (PRKG2 (human)): 92.2%
